Data: the supplement of paper PMC10627819

Columns and labels:
[1] = system: B. subtilis 168; test: fitness (endpoint OD595 vs no drug) (fraction); higher = more growth
Summary of the method: (§1)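 Growth medium was TSB, LB Lennox or CY, and plates were kept at 37 °C. Inoculation was at OD595 0.01 in 384-well plates, at 30 µl per well or 55 µl for S. pneumoniae. OD595 was monitored every 30 min for 14 h and background-subtracted using the first reading. Fitness is the optical density on entering stationary phase divided by the robust mean of no-drug controls, with values capped at 1.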

[2] = system: S. aureus Newman; test: as above
Summary of the method: as §1

[3] = system: S. pneumoniae D39V; test: as above
Summary of the method: as §1

[4] = system: B. subtilis 168; test: Bliss interaction score (quartile over a dose matrix) (fitness difference); higher = more antagonism (negative = synergy)
Summary of the method: (§2)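 Quartiles of the Bliss score were taken over technical, biological and donor/recipient replicates. That score is observed fitness minus the product of the single-drug fitness values, which were inferred from combination data. Fitness itself is OD595 at entry into stationary phase divided by the plate's robust no-drug mean, with a cap at 1.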

[5] = system: S. aureus DSM 20231; test: as above
Summary of the method: as §2

[6] = system: S. aureus Newman; test: as above
Summary of the method: as §2

[7] = system: S. pneumoniae D39V; test: as above
Summary of the method: as §2

[8] = first compound 0.125 µg/mL, partner 0.039 µg/mL
[9] = first compound 0.125 µg/mL, partner 0.078 µg/mL
[10] = first compound 0.125 µg/mL, partner 0.156 µg/mL
[11] = first compound 0.25 µg/mL, partner 0.039 µg/mL
[12] = first compound 0.25 µg/mL, partner 0.078 µg/mL
[13] = first compound 0.25 µg/mL, partner 0.156 µg/mL
[14] = first compound 0.5 µg/mL, partner 0.039 µg/mL
[15] = first compound 0.5 µg/mL, partner 0.078 µg/mL
[16] = first compound 0.5 µg/mL, partner 0.156 µg/mL
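Wherever Bliss interaction score (quartile over a dose matrix) is given: first quartile when negative (synergy) and third quartile when positive (antagonism).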

`CCCCCCCCCC(=O)N[C@@H](Cc1c[nH]c2ccccc12)C(=O)N[C@H](CC(N)=O)C(=O)N[C@@H](CC(=O)O)C(=O)N[C@@H]1C(=O)NCC(=O)N[C@@H](CCCN)C(=O)N[C@@H](CC(=O)O)C(=O)N[C@H](C)C(=O)N[C@@H](CC(=O)O)C(=O)NCC(=O)N[C@H](CO)C(=O)N[C@@H]([C@H](C)CC(=O)O)C(=O)N[C@@H](CC(=O)c2ccccc2N)C(=O)O[C@@H]1C` [Daptomycin] + CC(C1CCC(C(O1)OC2C(CC(C(C2O)OC3C(C(C(CO3)(C)O)NC)O)N)N)N)NC [Gentamicin] showed a fitness ([1]; first compound 0.125 µg/mL, partner 0.0625 µg/mL, main component drawn) of 0.905, a fitness ([1]; first compound 0.125 µg/mL, partner 0.25 µg/mL, main component drawn) of 0.0486 and a fitness ([1]; first compound 0.25 µg/mL, partner 0.0625 µg/mL, main component drawn) of 0.906. For the same compound, the fitness ([1]; first compound 1 µg/mL, partner 0.0625 µg/mL, one replicate, main component drawn) was 0.718, the fitness ([1]; first compound 1 µg/mL, partner 0.125 µg/mL, one replicate, main component drawn) was 0.499 and the fitness ([1]; first compound 1 µg/mL, partner 0.25 µg/mL, one replicate, main component drawn) was 0.0176. The fitness ([2]; first compound 0.125 µg/mL, partner 0.375 µg/mL, one replicate, main component drawn) was no less than 1, the fitness ([2]; first compound 0.125 µg/mL, partner 0.5 µg/mL, main component drawn) was 0.926 and the fitness ([2]; first compound 0.125 µg/mL, partner 0.75 µg/mL, one replicate, main component drawn) was no less than 1. It also gave a fitness ([2]; first compound 0.125 µg/mL, partner 1 µg/mL, main component drawn) of no less than 1, a fitness ([2]; first compound 0.125 µg/mL, partner 1.5 µg/mL, one replicate, main component drawn) of 0.656 and a fitness ([2]; first compound 0.125 µg/mL, partner 2 µg/mL, main component drawn) of no less than 1. It also gave a fitness ([2]; first compound 0.25 µg/mL, partner 0.375 µg/mL, one replicate, main component drawn) of no less than 1, a fitness ([2]; first compound 0.25 µg/mL, partner 0.5 µg/mL, main component drawn) of 0.947 and a fitness ([2]; first compound 0.25 µg/mL, partner 0.75 µg/mL, one replicate, main component drawn) of no less than 1. The fitness ([2]; first compound 0.25 µg/mL, partner 1 µg/mL, main component drawn) was no less than 1, the fitness ([2]; first compound 0.25 µg/mL, partner 1.5 µg/mL, one replicate, main component drawn) was 0.153 and the fitness ([2]; first compound 0.25 µg/mL, partner 2 µg/mL, main component drawn) was no less than 1. For the same compound, the fitness ([2]; first compound 0.5 µg/mL, partner 0.375 µg/mL, one replicate, main component drawn) was no less than 1, the fitness ([2]; first compound 0.5 µg/mL, partner 0.5 µg/mL, main component drawn) was 0.949 and the fitness ([2]; first compound 0.5 µg/mL, partner 0.75 µg/mL, one replicate, main component drawn) was no less than 1. It also gave a fitness ([2]; first compound 0.5 µg/mL, partner 1 µg/mL, main component drawn) of 0.993, a fitness ([2]; first compound 0.5 µg/mL, partner 1.5 µg/mL, one replicate, main component drawn) of 0.237 and a fitness ([2]; first compound 0.5 µg/mL, partner 2 µg/mL, main component drawn) of no less than 1. For the same compound, the fitness ([3]; first compound 1 µg/mL, partner 2 µg/mL, main component drawn) was 0.952, the fitness ([3]; first compound 1 µg/mL, partner 4 µg/mL, main component drawn) was 0.917 and the fitness ([3]; first compound 1 µg/mL, partner 8 µg/mL, main component drawn) was 0.868. It also gave a fitness ([3]; first compound 2 µg/mL, partner 2 µg/mL, main component drawn) of 0.956, a fitness ([3]; first compound 2 µg/mL, partner 4 µg/mL, main component drawn) of 0.905 and a fitness ([3]; first compound 2 µg/mL, partner 8 µg/mL, main component drawn) of 0.877. It also gave a fitness ([3]; first compound 4 µg/mL, partner 8 µg/mL, main component drawn) of 0.724, a Bliss interaction score ([4]; main component drawn) of 0.136 and a Bliss interaction score ([5]; main component drawn) of 0.0663. For the same compound, the Bliss interaction score ([6]; main component drawn) was -0.0263 and the Bliss interaction score ([7]; main component drawn) was 0.0772.

With `CCCCCCCCCC(=O)N[C@@H](Cc1c[nH]c2ccccc12)C(=O)N[C@H](CC(N)=O)C(=O)N[C@@H](CC(=O)O)C(=O)N[C@@H]1C(=O)NCC(=O)N[C@@H](CCCN)C(=O)N[C@@H](CC(=O)O)C(=O)N[C@H](C)C(=O)N[C@@H](CC(=O)O)C(=O)NCC(=O)N[C@H](CO)C(=O)N[C@@H]([C@H](C)CC(=O)O)C(=O)N[C@@H](CC(=O)c2ccccc2N)C(=O)O[C@@H]1C` [Daptomycin] + CN(C)c1cc(NC(=O)CNC(C)(C)C)c(O)c2c1C[C@H]1C[C@H]3[C@H](N(C)C)C(O)=C(C(N)=O)C(=O)[C@@]3(O)C(O)=C1C2=O [Tigecycline] the fitness [1, 8] was 0.929, the fitness [1, 9] was 0.89 and the fitness ([1]; first compound 0.125 µg/mL, partner 0.125 µg/mL, one replicate) was 0.985. The fitness [1, 10] was 0.904, the fitness ([1]; first compound 0.125 µg/mL, partner 0.25 µg/mL, one replicate) was 0.902 and the fitness ([1]; first compound 0.125 µg/mL, partner 0.5 µg/mL, one replicate) was 0.899. For the same compound, the fitness [1, 11] was 0.926, the fitness [1, 12] was 0.892 and the fitness ([1]; first compound 0.25 µg/mL, partner 0.125 µg/mL, one replicate) was 0.974. It also gave a fitness [1, 13] of 0.905, a fitness ([1]; first compound 0.25 µg/mL, partner 0.25 µg/mL, one replicate) of 0.926 and a fitness ([1]; first compound 0.25 µg/mL, partner 0.5 µg/mL, one replicate) of 0.981. It also gave a fitness [1, 14] of 0.869, a fitness [1, 15] of 0.867 and a fitness ([1]; first compound 0.5 µg/mL, partner 0.125 µg/mL, one replicate) of 0.955. It also gave a fitness [1, 16] of 0.885, a fitness ([1]; first compound 0.5 µg/mL, partner 0.25 µg/mL, one replicate) of 0.944 and a fitness ([1]; first compound 0.5 µg/mL, partner 0.5 µg/mL, one replicate) of 0.989. The fitness ([1]; first compound 1 µg/mL, partner 0.039 µg/mL, one replicate) was 0.759, the fitness ([1]; first compound 1 µg/mL, partner 0.078 µg/mL, one replicate) was 0.732 and the fitness ([1]; first compound 1 µg/mL, partner 0.156 µg/mL, one replicate) was 0.731. It also gave a fitness [2, 8] of 0.932, a fitness [2, 9] of no less than 1 and a fitness [2, 10] of no less than 1. It also gave a fitness [2, 11] of 0.984, a fitness [2, 12] of 0.988 and a fitness [2, 13] of 0.997. It also gave a fitness [2, 14] of 0.917, a fitness [2, 15] of 0.987 and a fitness [2, 16] of 0.991. It also gave a fitness ([3]; first compound 1 µg/mL, partner 0.325 µg/mL) of 0.973, a fitness ([3]; first compound 1 µg/mL, partner 0.65 µg/mL) of 0.959 and a fitness ([3]; first compound 1 µg/mL, partner 1.3 µg/mL) of 0.963. It also gave a fitness ([3]; first compound 1 µg/mL, partner 2.6 µg/mL) of 0.911, a fitness ([3]; first compound 2 µg/mL, partner 0.325 µg/mL) of 0.993 and a fitness ([3]; first compound 2 µg/mL, partner 0.65 µg/mL) of 0.945. The fitness ([3]; first compound 2 µg/mL, partner 1.3 µg/mL) was 0.956, the fitness ([3]; first compound 2 µg/mL, partner 2.6 µg/mL) was 0.903 and the fitness ([3]; first compound 4 µg/mL, partner 0.325 µg/mL) was 0.976. For the same compound, the fitness ([3]; first compound 4 µg/mL, partner 0.65 µg/mL) was 0.963, the fitness ([3]; first compound 4 µg/mL, partner 1.3 µg/mL) was 0.972 and the fitness ([3]; first compound 4 µg/mL, partner 2.6 µg/mL) was 0.956. For the same compound, the Bliss interaction score [4] was -0.0609, the Bliss interaction score [5] was 0.0697 and the Bliss interaction score [6] was -0.037. It also gave a Bliss interaction score [7] of 0.0991.
